Measurements: US20240226066A1, “CARDIOPROTECTION BY AUTOPHAGY INDUCTION AND METABOLIC REPROGRAMMING” (UNIVERSITE PARIS-SACLAY, priority 2021, published 2024)

What was measured:
RNVCs = assay: Mitochondrial network and cell volume by confocal microscopy (Mitotracker, calcein-AM, IMARIS); assay type: cell-based, rat; conditions: 1 and 10 μM, 6 h
Procedure: FIG. 6. Effects on mitochondrial dynamics by fluorescence microscopy The RNVCs were treated with 1 μM hits (FIG. 6A) and 10 μM hits (FIG. 6B) for 6 h and the mitochondrial network was stained with 200 nM of Mitotracker. The mitochondrial network and individual mitochondria were then analyzed using a Leica confocal microscope and IMARIS software. Data are presented as mean±SEM with single-factor ANOVA, and multiple Sidak comparisons. *, p<0.05, **, p<0.01, ***, p<0.001 with respect to DMSO.
FIG. 11: following the treatment of the RNVCs with the compounds as indicated, the cell volume was stained with 4 μM of calcein-AM. The cell volume was then analyzed using the IMARIS software.
Confocal microscopy. On day 0, 4×10^5 neonatal cardiomyocytes were plated overnight on laminin-coated 35 mm culture dishes (10 μg/ml). On day 1, the cells were treated with various compounds at 1 or 10 μM for 6 hours. The cells were incubated with Mitotracker Red 580 at 200 nM for 20 minutes at 37° C., then 4 μM of calcein (Calcein AM, Life Technologies, St Aubin, France) for 10 minutes at 37° C. The images were acquired with a Leica confocal microscope (SP5) (Mannheim, Germany). The mitochondrial network and the 3D model of cell volume were reconstructed using the IMARIS software (Bitplane Company, Zurich, Switzerland); therefore the cell volume, mitochondrial number and volume were analyzed.
(§1) Due to the importance of mitochondria and reactive oxygen species (ROS) levels in the fate of cardiomyocyte cells, the hypothesis that the compounds could impact the mitochondrial network was explored. Following treatment of the RNVCs with the compounds tested, the mitochondrial network was stained with 200 nM of Mitotracker and the cell volume with 4 μM of calcein-AM. Thus, the mitochondrial network and the individual mitochondria were then analyzed using the IMARIS software.

DRP-1 = assay: Western blot of DRP-1 phosphorylation (Ser616) in RNVCs; assay type: cell-based, rat
Procedure: FIG. 6D: Drp-1 and P-Drp-1 and MFN2 protein levels in RNVCs analyzed by western blotting. *, p<0.05, **, p<0.01, ***, p<0.001 with respect to DMSO. The experiments were reproduced 3 times. Representative western blotting images and quantification of three independent experiments are presented as mean±SEM with single-factor ANOVA, and multiple Sidak comparisons.
(§2) The H9C2 cells and RNVCs were detached in LB containing: 50 mM Tris, 150 mM NaCl, 1 mM EDTA, 0.5% deoxycholate, 1% Triton X 100, 0.1% SDS (pH 8.0). The cells were collected and placed on ice for 30 minutes. The cells were then centrifuged at 2000 g for 20 minutes at for 4° C. The supernatant was transferred to a new tube and stored on ice. The protein concentration was determined by BCA assay. The protein samples were diluted with sample buffer (2× Laemmli, Sigma), mixed, and heated for 5 minutes at 95° C. […] The images were recorded with a gel imaging system (Bio Rad). […]
Due to the importance of mitochondria and reactive oxygen species (ROS) levels in the fate of cardiomyocyte cells, the hypothesis that the compounds could impact the mitochondrial network was explored. […] Thus, the mitochondrial network and the individual mitochondria were then analyzed using the IMARIS software.

H9C2 cells = assay: Mitochondrial morphology and abundance by transmission electron microscopy; assay type: cell-based, rat; conditions: compared to DMSO; for mitochondrial number, size and morphology by transmission electron microscopy: 1 μM
Procedure: The cells were treated with a vehicle (0.01% DMSO), 1 μM digoxin, 1 μM SG6163F, 10 μM SG6163F, fixed with glutaraldehyde and analyzed by transmission electron microscopy. The cells treated with digoxin and with 10 μM SG6163F have many shorter round mitochondria compared with the control which has long thin mitochondria (FIG. 7B, FIG. 7D versus FIG. 7A).
Transmission electron microscopy. For ultrastructural analysis, the cells were fixed in 1.6% glutaraldehyde in a 0.1 M phosphate buffer, rinsed in a 0.1 M cacodylate buffer, and post-fixed for 1 h in 1% osmium tetroxide and 1% potassium ferrocyanide in a 0.1 M cacodylate buffer to improve the coloration of the membranes. The cells were rinsed in distilled water, dehydrated in alcohols and finally embedded in epoxy resin. Contrasting ultrafine sections (70 nm) were analyzed under a JEOL 1400 transmission electron microscope with a Morada Olympus CCD camera.
as §1

BAX = assay: Western blot of BAX expression in RNVCs; assay type: cell-based, rat; conditions: 6 h treatment
Procedure: Levels of protein expression of BCL-2 (FIG. 3A and FIG. 3B) BXL-XL (FIG. 3C) and BAX (FIG. 3C), in the RNVCs after 6 h of treatment (FIG. 3A, FIG. 3C, FIG. 3D) or 24 h (FIG. 3B). Co., untreated cell control. Each experiment was reproduced at least three times. Representative western blotting images and quantification of three independent experiments are presented as mean±SEM with single-factor ANOVA, with multiple Sidak comparisons. *, p<0.05 with respect to DMSO.
as §2

[1] = tested on: A549 lung cancer cell line; assay: Influence of hits on growth of A549 cancer cells (total LDH after lysis); assay type: cell-based; conditions: 48 h
Procedure: The cells were cultured for 6 h in the presence or absence of the hits, and then for 42 h. Finally, the cells were lysed with lysis buffer and the amount of LDH was measured to evaluate the total cell growth.
A colorimetric assay was used to measure lactate dehydrogenase (LDH), a cytosolic enzyme which is released during permeabilization of the plasma membrane (Promega G1780). The assay was performed using cell culture supernatants obtained from H9C2 or RNVC (rat neonatal ventricular myocyte) cells and lysis buffer (LB) was used as a positive control for total cell lysis. The LDH release was measured by absorbance reading at 490 nm (Infinite spectrofluorimeter, Tecan).
The effect of the compounds was then evaluated on primary rat neonatal ventricular cardiomyocytes (RNVCs) using the LDH test and propidium iodide staining. […] The absence of proliferative effects of the compounds was also evaluated on the A549 lung cancer cell line for 48 h (FIG. 2C).

C[C@H]1O[C@@H](O[C@H]2[C@@H](O)C[C@H](O[C@H]3[C@@H](O)CC(O[C@H]4CC[C@@]5(C)[C@H](CC[C@@H]6[C@@H]5C[C@@H](O)[C@]5(C)[C@@H](C7=CC(=O)OC7)CC[C@]65O)C4)O[C@@H]3C)O[C@@H]2C)C[C@H](O)[C@@H]1O (stereo partly shown) [digoxin]
number of mitochondria (RNVCs): increased
total mitochondrial volume per cell (RNVCs): increased
phosphorylation of DRP-1 at Ser616, (DRP1-P)/(DRP-1 total) ratio (DRP-1): stimulated fission by phosphorylation of DRP-1
mitochondrial number, size and morphology by transmission electron microscopy (H9C2 cells): increase in the number of mitochondria and a decrease in their size
expression of pro-apoptotic BAX protein (BAX): significantly decreased
effect on A549 cell growth [1]: significantly reduced cell growth and induced cell death

O=C1NC(c2ccccc2)=N/C1=C\c1cc2ccccc2c2ccccc12 [SG6163F]
number of mitochondria (RNVCs): increased
total mitochondrial volume per cell (RNVCs): increased
phosphorylation of DRP-1 at Ser616, (DRP1-P)/(DRP-1 total) ratio (DRP-1): stimulated fission by phosphorylation of DRP-1
mitochondrial number, size and morphology by transmission electron microscopy (H9C2 cells): did not affect the morphology of the mitochondria
mitochondrial number and size by transmission electron microscopy (H9C2 cells; 10 μM): increase in the number of mitochondria and a decrease in their size
expression of pro-apoptotic BAX protein (BAX): significantly decreased
effect on A549 cell growth [1]: no proliferative effect

C[C@]12CC[C@H](O)C[C@H]1CC[C@@H]1[C@@H]2CC[C@]2(C)[C@@H](C3=CC(=O)OC3)CC[C@]12O [digitoxigenin]
number of mitochondria (RNVCs): increased
total mitochondrial volume per cell (RNVCs): increased
effect on A549 cell growth [1]: significantly reduced cell growth and induced cell death
